From patent publication US8952157B2, “Apoptosis-inducing agents for the treatment of cancer and immune and autoimmune diseases” (AbbVie Inc., priority 2008, dated 2015)

Molecular target: GST-Bcl-2 (Homo sapiens (Human), UniProt P10415)
Assay: Time Resolved-Fluorescence Resonance Energy Transfer (TR-FRET) Bcl-2 binding assay
Details: GST-Bcl-2 1 nM, F-Bak peptide probe 100 nM, Tb-anti-GST antibody 1 nM; Ki by Wang's equation
Method in brief: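 Ki values derived from TR-FRET displacement of F-Bak peptide from GST-Bcl-2, detected with Tb-labelled anti-GST antibody (ex 340, em 520/495 nm). Compound dilution series started at 50 μM (2× starting concentration); room-temperature incubation 3 hours.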

Sequence of GST-Bcl-2 (P10415 whole entry): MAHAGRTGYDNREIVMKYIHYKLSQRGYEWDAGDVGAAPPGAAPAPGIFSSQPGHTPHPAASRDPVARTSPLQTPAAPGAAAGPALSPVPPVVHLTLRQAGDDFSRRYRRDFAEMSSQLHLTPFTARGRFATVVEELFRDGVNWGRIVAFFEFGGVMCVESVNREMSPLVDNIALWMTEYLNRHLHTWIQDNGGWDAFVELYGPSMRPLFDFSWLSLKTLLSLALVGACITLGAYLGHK

Row | Compound | Ki [nM]
1 | CC(C)(C)OC(=O)N1CCN(c2ccc(Oc3cc(N4CCN(Cc5ccccc5-c5ccc(Cl)cc5)CC4)ccc3C(=O)NS(=O)(=O)c3ccc(NCCCN4CCOCC4)c([N+](=O)[O-])c3)cc2)CC1 [Example 97, tert-butyl 4-(4-(5-(4-((4′-chloro-1,1′-biphenyl-2-yl)methyl)piperazin-1-yl)-2-((((4-((3-morpholin-4-ylpropyl)amino)-3-nitrophenyl)sulfonyl)amino)carbonyl)phenoxy)phenyl)piperazine-1-carboxylate] | 147
2 | CC1(C)CCC(CN2CCN(c3ccc(C(=O)NS(=O)(=O)c4ccc(NCCCN5CCOCC5)c([N+](=O)[O-])c4)c(Oc4ccccc4F)c3)CC2)=C(c2ccc(Cl)cc2)C1 [Example 125, 4-(4-{[2-(4-chlorophenyl)-4,4-dimethylcyclohex-1-en-1-yl]methyl}piperazin-1-yl)-2-(2-fluorophenoxy)-N-({4-[(3-morpholin-4-ylpropyl)amino]-3-nitrophenyl}sulfonyl)benzamide] | 0.075
3 | CC1(C)CCC(CN2CCN(c3ccc(C(=O)NS(=O)(=O)c4ccc(NCCCN5CCOCC5)c([N+](=O)[O-])c4)c(Oc4ccccc4Cl)c3)CC2)=C(c2ccc(Cl)cc2)C1 [Example 116, 2-(2-chlorophenoxy)-4-(4-{[2-(4-chlorophenyl)-4,4-dimethylcyclohex-1-en-1-yl]methyl}piperazin-1-yl)-N-({4-[(3-morpholin-4-ylpropyl)amino]-3-nitrophenyl}sulfonyl)benzamide] | 0.123
4 | CC1(C)CCC(CN2CCN(c3ccc(C(=O)NS(=O)(=O)c4ccc(NCC5CCOCC5)c([N+](=O)[O-])c4)c(Oc4cnc(N)c(C5CC5)c4)c3)CC2)=C(c2ccc(Cl)cc2)C1 [Example 366, 2-[(6-amino-5-cyclopropylpyridin-3-yl)oxy]-4-(4-{[2-(4-chlorophenyl)-4,4-dimethylcyclohex-1-en-1-yl]methyl}piperazin-1-yl)-N-({3-nitro-4-[(tetrahydro-2H-pyran-4-ylmethyl)amino]phenyl}sulfonyl)benzamide] | 6.05
